In the supplement of paper PMC10307832:

Key:
Assay in all cases: relative viability (nuclei count vs DMSO), 5 days (fraction); higher = more cells survive
[1] = compound: CC1=CN=C(N=C1C2=CNC(=C2)C(=O)N[C@H](CO)C3=CC(=CC=C3)Cl)NC4=C(C=C(C=C4)F)Cl [VX-11e] + CCNC(=O)c1noc(-c2cc(C(C)C)c(O)cc2O)c1-c1ccc(CN2CCOCC2)cc1 [Luminespib] (partner 0.01 µM)
How it was run: (§1)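 After 5 days of treatment, lung cancer cells in 1536-well plates were fixed and stained in a single step (final 0.05% Triton X-100, 1% formaldehyde, 1 ug/ml Hoechst) and their nuclei counted on 4× images. Treatment had been applied by pin tool the day after seeding as one drug alone or as a fixed anchor-drug dose with five library-drug doses (not always all listed) in √10 steps. Relative viability is the nuclei count of treated wells divided by that of vehicle wells, and values are medians of duplicate plates.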

[2] = compound: CC1=CN=C(N=C1C2=CNC(=C2)C(=O)N[C@H](CO)C3=CC(=CC=C3)Cl)NC4=C(C=C(C=C4)F)Cl [VX-11e] + CC(C)C[C@H](NC(=O)[C@H](Cc1ccccc1)NC(=O)c1cnccn1)B(O)O [Bortezomib] (partner 0.002 µM)
How it was run: as §1

[3] = compound: CC1=CN=C(N=C1C2=CNC(=C2)C(=O)N[C@H](CO)C3=CC(=CC=C3)Cl)NC4=C(C=C(C=C4)F)Cl [VX-11e] + Cc1nc(Nc2ncc(C(=O)Nc3c(C)cccc3Cl)s2)cc(N2CCN(CCO)CC2)n1 [Dasatinib] (partner 0.075 µM)
How it was run: as §1

[4] = compound: CC1=CN=C(N=C1C2=CNC(=C2)C(=O)N[C@H](CO)C3=CC(=CC=C3)Cl)NC4=C(C=C(C=C4)F)Cl [VX-11e] + CC(=O)c1c(C)c2cnc(Nc3ccc(N4CCNCC4)cn3)nc2n(C2CCCC2)c1=O [Palbociclib] (partner 0.5 µM)
How it was run: as §1

Cell Line | relative viability ([1]; first compound 0.04 µM) | relative viability ([1]; first compound 0.1265 µM) | relative viability ([1]; first compound 0.4 µM) | relative viability ([1]; first compound 1.265 µM) | relative viability ([1]; first compound 4 µM) | relative viability ([2]; first compound 0.04 µM) | relative viability ([2]; first compound 0.1265 µM) | relative viability ([2]; first compound 0.4 µM) | relative viability ([2]; first compound 1.265 µM) | relative viability ([2]; first compound 4 µM) | relative viability ([3]; first compound 0.04 µM) | relative viability ([3]; first compound 0.1265 µM) | relative viability ([3]; first compound 0.4 µM) | relative viability ([3]; first compound 1.265 µM) | relative viability ([3]; first compound 4 µM) | relative viability ([4]; first compound 0.04 µM) | relative viability ([4]; first compound 0.1265 µM) | relative viability ([4]; first compound 0.4 µM) | relative viability ([4]; first compound 1.265 µM) | relative viability ([4]; first compound 4 µM)
COR-L 105 | 0.978 | 0.391 | 0.825 | 0.592 | 0.375 | 0.814 | 0.826 | 0.6 | 0.338 | 0.226 | 0.316 | 0.344 | 0.33 | 0.198 | 0.229 | 0.425 | 0.414 | 0.396 | 0.386 | 0.363
H3255 | 0.773 | 0.963 | 0.819 | 0.686 | 0.89 | 0.709 | 0.857 | 0.657 | 0.612 | 0.64 | 0.37 | 0.38 | 0.538 | 0.281 | 0.347 | 0.312 | 0.305 | 0.316 | 0.316 | 0.327
LCLC-97TM1 | 0.781 | 0.693 | 0.615 | 0.393 | 0.263 | 0.591 | 0.675 | 0.943 | 0.339 | 0.107 | 1 | 0.728 | 0.793 | 0.547 | 0.301 | 0.202 | 0.176 | 0.194 |  | 0.114
NCI-H441 | 0.345 | 0.31 |  | 0.459 | 0.323 | 0.54 | 0.436 |  | 0.963 | 0.432 | 0.685 | 0.814 |  | 0.502 | 0.318 | 0.175 | 0.232 |  | 0.157 | 0.165
UMC-11 | 1.01 | 1.02 | 1.02 | 0.948 | 0.94 | 0.562 | 0.668 | 0.714 | 0.598 | 0.551 | 0.44 | 0.42 | 0.439 | 0.587 | 0.464 |  | 0.309 | 0.283 | 0.267 | 0.318
HCC-15 | 0.264 | 0.363 | 0.207 | 0.18 | 0.175 | 1.1 | 1.07 | 0.754 | 0.794 | 0.428 | 0.66 | 0.52 |  | 0.243 | 0.148 | 0.838 | 0.627 |  | 0.445 | 0.249
NCI-H1650 | 0.195 | 0.185 |  | 0.192 | 0.186 | 0.192 | 0.198 | 0.235 | 0.199 | 0.195 | 0.304 | 0.385 |  | 0.312 | 0.187 | 0.314 | 0.258 | 0.158 | 0.253 | 0.28
NCI-H2347 | 0.293 | 0.548 | 0.323 | 0.269 | 0.366 | 0.87 | 0.801 | 0.815 | 0.738 | 0.435 | 0.221 | 0.314 | 0.126 | 0.232 | 0.197 | 0.475 | 0.405 | 0.481 | 0.398 | 0.379
NCI-H647 | 0.248 | 0.329 | 0.118 | 0.24 | 0.111 | 0.892 | 0.964 | 0.584 | 0.491 | 0.477 | 0.23 | 0.215 | 0.0848 | 0.123 | 0.0992 | 0.37 | 0.346 | 0.372 | 0.256 | 0.217
NCI-H2085 | 0.378 | 0.433 | 0.396 | 0.323 | 0.276 | 1.04 | 0.979 | 1.03 | 0.898 | 0.825 | 0.296 | 0.241 | 0.217 | 0.188 | 0.193 | 0.498 | 0.437 | 0.457 | 0.404 | 0.366
